Results: paper PMC4076210, “Discovery of Novel AKT Inhibitors with Enhanced Anti-Tumor Effects in Combination with the MEK Inhibitor” (PLoS ONE, 2014)

Legend:
ALK(h) = target: T1, ALK(h) (Homo sapiens, UniProt Q9UM73); test: Kinase panel; format: biochemical
T1 construct: purchased Millipore KinaseProfiler

IR(h) = target: T2, IR(h) (Homo sapiens, UniProt P06213); test: Kinase panel; format: biochemical
T2 construct: purchased Millipore KinaseProfiler

KDR(h) = target: T3, KDR(h) (Homo sapiens, UniProt P35968); test: Kinase panel; format: biochemical
T3 construct: purchased Millipore KinaseProfiler

MST1(h) = target: T4, MST1(h) (Homo sapiens, UniProt Q13043); test: Kinase panel; format: biochemical
T4 construct: purchased Millipore KinaseProfiler
T4 sequence (Q13043 1-487): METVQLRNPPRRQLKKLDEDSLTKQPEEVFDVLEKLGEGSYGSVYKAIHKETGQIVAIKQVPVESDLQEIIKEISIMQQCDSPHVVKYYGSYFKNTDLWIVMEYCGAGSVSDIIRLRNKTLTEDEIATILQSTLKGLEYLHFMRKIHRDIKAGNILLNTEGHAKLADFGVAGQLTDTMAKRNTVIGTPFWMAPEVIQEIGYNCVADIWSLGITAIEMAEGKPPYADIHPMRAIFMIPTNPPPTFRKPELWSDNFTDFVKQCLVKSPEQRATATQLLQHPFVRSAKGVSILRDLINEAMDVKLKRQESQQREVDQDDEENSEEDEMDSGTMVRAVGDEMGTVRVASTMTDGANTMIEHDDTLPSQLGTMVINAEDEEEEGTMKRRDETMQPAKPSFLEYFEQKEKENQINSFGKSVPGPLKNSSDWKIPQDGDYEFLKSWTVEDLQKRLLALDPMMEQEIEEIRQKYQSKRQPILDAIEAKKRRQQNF

Pyk2(h) = target: T5, Pyk2(h) (Homo sapiens, UniProt Q14289); test: Kinase panel; format: biochemical
T5 construct: purchased Millipore KinaseProfiler
T5 sequence (Q14289 whole entry): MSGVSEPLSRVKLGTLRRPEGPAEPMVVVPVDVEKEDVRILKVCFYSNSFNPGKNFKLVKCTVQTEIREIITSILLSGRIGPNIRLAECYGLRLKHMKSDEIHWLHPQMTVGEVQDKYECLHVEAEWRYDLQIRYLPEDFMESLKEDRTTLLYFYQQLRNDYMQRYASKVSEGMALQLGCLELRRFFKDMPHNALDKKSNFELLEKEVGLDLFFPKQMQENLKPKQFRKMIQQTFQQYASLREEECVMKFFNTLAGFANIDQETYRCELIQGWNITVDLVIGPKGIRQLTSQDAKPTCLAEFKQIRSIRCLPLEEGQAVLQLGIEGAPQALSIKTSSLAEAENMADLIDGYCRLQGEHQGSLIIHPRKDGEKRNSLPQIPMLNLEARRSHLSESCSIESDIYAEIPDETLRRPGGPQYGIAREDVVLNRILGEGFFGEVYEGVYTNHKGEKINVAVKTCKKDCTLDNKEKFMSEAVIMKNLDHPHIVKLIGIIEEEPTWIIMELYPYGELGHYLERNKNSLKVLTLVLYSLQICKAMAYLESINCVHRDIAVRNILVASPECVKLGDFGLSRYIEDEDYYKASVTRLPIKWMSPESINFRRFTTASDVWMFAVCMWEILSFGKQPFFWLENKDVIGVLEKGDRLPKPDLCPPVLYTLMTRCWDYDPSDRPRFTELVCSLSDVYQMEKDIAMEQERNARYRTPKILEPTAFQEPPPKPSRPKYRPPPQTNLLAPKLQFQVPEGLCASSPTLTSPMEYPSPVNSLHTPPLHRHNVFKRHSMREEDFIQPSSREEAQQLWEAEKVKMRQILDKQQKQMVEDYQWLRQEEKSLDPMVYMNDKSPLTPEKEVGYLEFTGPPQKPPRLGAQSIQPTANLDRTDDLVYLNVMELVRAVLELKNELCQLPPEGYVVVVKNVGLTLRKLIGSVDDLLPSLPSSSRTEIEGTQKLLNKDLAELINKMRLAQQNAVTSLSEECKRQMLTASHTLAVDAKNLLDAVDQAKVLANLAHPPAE

Tie2(Y897S)(h) = target: T6, Tie2(Y897S)(h) (Homo sapiens, UniProt Q02763, Y897S); test: Kinase panel; format: biochemical
T6 construct: purchased Millipore KinaseProfiler
T6 sequence (Q02763 23-1124 Y897S): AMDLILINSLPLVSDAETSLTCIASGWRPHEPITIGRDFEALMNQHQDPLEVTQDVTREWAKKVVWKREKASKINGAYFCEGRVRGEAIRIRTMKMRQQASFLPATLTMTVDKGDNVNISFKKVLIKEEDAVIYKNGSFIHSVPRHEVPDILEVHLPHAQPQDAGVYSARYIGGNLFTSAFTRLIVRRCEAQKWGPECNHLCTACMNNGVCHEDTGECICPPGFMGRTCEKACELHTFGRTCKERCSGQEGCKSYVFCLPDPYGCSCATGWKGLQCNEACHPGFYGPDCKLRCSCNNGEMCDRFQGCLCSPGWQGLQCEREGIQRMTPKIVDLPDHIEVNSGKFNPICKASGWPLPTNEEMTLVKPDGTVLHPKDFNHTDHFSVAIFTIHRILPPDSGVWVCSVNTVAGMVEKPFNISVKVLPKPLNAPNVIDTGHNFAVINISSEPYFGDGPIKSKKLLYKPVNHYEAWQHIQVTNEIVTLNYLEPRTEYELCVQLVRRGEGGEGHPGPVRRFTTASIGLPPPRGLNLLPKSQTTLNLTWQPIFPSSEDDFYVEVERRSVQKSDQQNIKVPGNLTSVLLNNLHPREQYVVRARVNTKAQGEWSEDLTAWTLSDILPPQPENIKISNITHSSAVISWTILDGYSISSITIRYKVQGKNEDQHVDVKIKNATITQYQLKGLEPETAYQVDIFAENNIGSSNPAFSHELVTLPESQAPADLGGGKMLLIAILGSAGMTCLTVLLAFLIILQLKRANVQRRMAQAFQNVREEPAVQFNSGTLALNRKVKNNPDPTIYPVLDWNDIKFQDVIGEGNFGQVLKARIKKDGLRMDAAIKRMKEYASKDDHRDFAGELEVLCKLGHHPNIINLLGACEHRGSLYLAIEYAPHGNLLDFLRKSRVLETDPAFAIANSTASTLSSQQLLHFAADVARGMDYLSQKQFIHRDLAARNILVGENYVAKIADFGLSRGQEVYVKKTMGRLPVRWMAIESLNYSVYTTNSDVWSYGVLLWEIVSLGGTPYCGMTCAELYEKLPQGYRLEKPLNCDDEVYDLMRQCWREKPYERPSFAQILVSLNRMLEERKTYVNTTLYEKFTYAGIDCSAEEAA

PKA = PKA (Homo sapiens, UniProt P17612); test: Kinase IC50 assay; format: biochemical
[1] = tested on: hematological tumor cell lines; test: 3-day proliferation assay (CellTiter-Glo); format: cell-based, human; conditions: for IC50: Homo sapiens
Description: Various tumor cell lines were obtained from different sources including; the American Type Cell Culture Collection, the Developmental Therapeutics Program, the National Cancer Institute, the German Resource Center for Biological Material and the European Collection of Animal Cell Cultures. Cell lines were typically grown in […] containing 10% FBS. Some cell lines were grown in media specified by the vendor. A 3-day proliferation assay using CellTiter-Glo (CTG, Promega) was performed to measure the growth inhibition by the compounds at 0–30 µM. Cell growth was determined relative to untreated (DMSO) controls. EC50's were calculated from inhibition curves using a 4- or 6-parameter fitting algorithm in the Assay Client application.

T1 sequence (Q9UM73 19-1620): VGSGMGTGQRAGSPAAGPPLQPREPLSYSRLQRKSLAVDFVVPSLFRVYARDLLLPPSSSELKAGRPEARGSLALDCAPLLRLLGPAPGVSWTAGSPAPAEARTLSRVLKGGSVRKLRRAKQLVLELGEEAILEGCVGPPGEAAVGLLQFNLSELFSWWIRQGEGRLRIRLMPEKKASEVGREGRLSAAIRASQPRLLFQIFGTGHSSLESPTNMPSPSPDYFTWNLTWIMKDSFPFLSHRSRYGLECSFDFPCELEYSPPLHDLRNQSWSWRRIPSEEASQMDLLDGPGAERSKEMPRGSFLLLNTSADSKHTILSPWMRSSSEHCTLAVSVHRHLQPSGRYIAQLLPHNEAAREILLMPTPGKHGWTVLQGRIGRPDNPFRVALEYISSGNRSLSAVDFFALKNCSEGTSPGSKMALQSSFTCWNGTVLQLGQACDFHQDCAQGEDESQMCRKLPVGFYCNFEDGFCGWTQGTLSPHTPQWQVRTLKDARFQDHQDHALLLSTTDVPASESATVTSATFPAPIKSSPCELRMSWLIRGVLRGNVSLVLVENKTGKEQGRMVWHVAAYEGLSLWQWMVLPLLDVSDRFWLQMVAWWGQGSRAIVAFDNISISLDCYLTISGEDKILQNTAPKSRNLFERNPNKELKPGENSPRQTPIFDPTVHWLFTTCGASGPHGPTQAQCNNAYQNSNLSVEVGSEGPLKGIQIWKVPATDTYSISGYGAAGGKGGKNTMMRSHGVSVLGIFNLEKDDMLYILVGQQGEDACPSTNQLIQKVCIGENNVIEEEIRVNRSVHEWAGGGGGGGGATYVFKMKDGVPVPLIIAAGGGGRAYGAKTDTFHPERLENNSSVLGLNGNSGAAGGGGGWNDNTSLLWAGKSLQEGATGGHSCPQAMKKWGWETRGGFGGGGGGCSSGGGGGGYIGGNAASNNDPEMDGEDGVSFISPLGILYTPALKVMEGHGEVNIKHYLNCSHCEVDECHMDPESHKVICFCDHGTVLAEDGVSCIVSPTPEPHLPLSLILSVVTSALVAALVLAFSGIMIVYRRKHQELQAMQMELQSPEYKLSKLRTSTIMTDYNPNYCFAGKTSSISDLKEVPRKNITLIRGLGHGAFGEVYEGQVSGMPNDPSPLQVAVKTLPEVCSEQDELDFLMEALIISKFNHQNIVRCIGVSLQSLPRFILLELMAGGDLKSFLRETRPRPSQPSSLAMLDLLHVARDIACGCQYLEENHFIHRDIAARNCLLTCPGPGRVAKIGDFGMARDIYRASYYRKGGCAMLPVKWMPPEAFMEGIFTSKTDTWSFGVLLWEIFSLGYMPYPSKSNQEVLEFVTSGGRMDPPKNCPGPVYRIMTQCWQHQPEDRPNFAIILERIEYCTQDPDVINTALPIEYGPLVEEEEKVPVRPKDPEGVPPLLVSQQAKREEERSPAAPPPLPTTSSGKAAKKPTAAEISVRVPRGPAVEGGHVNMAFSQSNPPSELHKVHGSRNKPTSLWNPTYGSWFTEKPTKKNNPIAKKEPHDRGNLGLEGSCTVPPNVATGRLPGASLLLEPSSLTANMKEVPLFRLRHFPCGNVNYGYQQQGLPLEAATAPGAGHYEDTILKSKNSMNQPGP
T2 sequence (P06213 28-1382): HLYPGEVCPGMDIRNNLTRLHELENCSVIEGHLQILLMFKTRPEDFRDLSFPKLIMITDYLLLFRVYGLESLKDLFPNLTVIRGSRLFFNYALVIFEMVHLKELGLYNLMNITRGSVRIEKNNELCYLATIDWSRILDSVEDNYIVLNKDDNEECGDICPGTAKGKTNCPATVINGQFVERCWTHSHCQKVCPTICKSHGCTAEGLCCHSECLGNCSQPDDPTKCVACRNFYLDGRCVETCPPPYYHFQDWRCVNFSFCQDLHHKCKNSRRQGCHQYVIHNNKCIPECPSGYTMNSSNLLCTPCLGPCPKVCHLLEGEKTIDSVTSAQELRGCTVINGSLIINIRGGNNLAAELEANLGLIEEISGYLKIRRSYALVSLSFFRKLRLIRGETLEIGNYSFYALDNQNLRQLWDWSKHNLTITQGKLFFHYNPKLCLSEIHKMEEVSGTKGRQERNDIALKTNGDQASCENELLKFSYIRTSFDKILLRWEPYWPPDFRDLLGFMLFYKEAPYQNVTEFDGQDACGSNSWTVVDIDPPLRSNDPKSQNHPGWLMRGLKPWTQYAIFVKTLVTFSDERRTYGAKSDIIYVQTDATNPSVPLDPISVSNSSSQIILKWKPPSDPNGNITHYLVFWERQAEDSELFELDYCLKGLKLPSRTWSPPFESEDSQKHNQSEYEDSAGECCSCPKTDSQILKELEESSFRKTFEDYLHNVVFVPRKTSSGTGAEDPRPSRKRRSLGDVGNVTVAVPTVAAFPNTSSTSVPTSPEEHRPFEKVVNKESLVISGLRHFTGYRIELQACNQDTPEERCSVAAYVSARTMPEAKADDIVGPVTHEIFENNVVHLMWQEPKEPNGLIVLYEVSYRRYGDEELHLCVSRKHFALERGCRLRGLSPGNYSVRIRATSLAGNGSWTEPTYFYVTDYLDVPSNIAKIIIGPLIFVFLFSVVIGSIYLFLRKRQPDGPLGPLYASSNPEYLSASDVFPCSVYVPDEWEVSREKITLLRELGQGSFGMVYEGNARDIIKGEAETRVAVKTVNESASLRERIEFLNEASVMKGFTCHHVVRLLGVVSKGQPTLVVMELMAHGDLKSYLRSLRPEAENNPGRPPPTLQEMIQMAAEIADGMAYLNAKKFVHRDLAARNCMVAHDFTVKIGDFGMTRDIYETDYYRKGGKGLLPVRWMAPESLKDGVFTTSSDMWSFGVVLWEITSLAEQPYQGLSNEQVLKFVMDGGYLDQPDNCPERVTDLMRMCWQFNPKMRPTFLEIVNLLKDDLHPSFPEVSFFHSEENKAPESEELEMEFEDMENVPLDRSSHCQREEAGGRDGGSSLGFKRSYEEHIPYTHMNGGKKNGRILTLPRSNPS

Cn1ncc(Cl)c1-c1cc(C(=O)N[C@H](CN)Cc2cccc(F)c2)sc1Cl [GSK2110183]
inhibition at 0.5 µM (ALK(h)): -22% | inhibition at 10 µM (ALK(h)): 0% | inhibition at 0.5 µM (IR(h)): 35% | inhibition at 10 µM (IR(h)): 32% | inhibition at 0.5 µM (KDR(h)): 13% | inhibition at 10 µM (KDR(h)): 7% | inhibition at 0.5 µM (MST1(h)): -2% | inhibition at 10 µM (MST1(h)): 19% | inhibition at 0.5 µM (Pyk2(h)): -7% | inhibition at 10 µM (Pyk2(h)): 2% | inhibition at 0.5 µM (Tie2(Y897S)(h)): -5% | inhibition at 10 µM (Tie2(Y897S)(h)): -4% | IC50 (PKA): 1.3 nM | hematological cell lines sensitive (EC50<1 µM) ([1]; 112 cell lines, 3 days, CTG): 65% | IC50 ([1]; 1A2, 1A2 cell line, Burkitt's Lymphoma, B Cell): 104 nM | IC50 ([1]; 697 cell line, ALL, pre-B Cell): 737 nM | IC50 ([1]; ARH-77, ARH77 cell line, Multiple Myeloma, B Cell): 313 nM | IC50 ([1]; B-cell, BDCM cell line, AML, B Cell): 26 nM | IC50 ([1]; B-cell, CESS cell line, AML, B Cell): 475 nM | IC50 ([1]; B-cell, HKB-11 cell line, Burkitt's Lymphoma, B Cell): 167 nM | IC50 ([1]; B-cell, HS-Sultan cell line, Burkitt's Lymphoma, B Cell): 649 nM | IC50 ([1]; B-cell, KARPAS-231 cell line, ALL, B Cell): 119 nM | IC50 ([1]; B-cell, MN60 cell line, ALL, B Cell): 1930 nM | IC50 ([1]; B-cell, Namalwa cell line, Burkitt's Lymphoma, B Cell): 908 nM | IC50 ([1]; B-cell, SD-1 cell line, ALL, B Cell): 10 nM | IC50 ([1]; B-cell, Tanoue cell line, ALL, B Cell): 1040 nM | IC50 ([1]; BC1, BC1 cell line, Burkitt's Lymphoma, B Cell): 2100 nM | IC50 ([1]; BC-3, BC3 cell line, Burkitt's Lymphoma, B Cell): 16300 nM | IC50 ([1]; BV-173, BV173 cell line, CML, pre-B Cell): 1210 nM | IC50 ([1]; CA46, CA46 cell line, Burkitt's Lymphoma, B Cell): 2320 nM | IC50 ([1]; CCRF-CEM, CCRFCEM cell line, ALL, T Cell): 369 nM | IC50 ([1]; CCRF-SB, CCRFSB cell line, ALL, B Cell): 56 nM | IC50 ([1]; CEM/C1, CEM/C1 cell line, ALL, T Cell): 109 nM | IC50 ([1]; CEM/C2, CEM/C2 cell line, ALL, T Cell): 48 nM | IC50 ([1]; CML-T1, CML-T1 cell line, CML, T Cell): 5080 nM | IC50 ([1]; CRO-AP5, CRO-AP5 cell line, Primary Effusion Lymphoma (PEL), B Cell): 67 nM | IC50 ([1]; DB, DB cell line, Non-Hodgkin's Lymphoma, B Cell): 6320 nM | IC50 ([1]; DG-75, DG75 cell line, Burkitt's Lymphoma, B Cell): 14900 nM | IC50 ([1]; DOHH-2, DOHH-2 cell line, Non-Hodgkin's Lymphoma, B Cell): 38 nM | IC50 ([1]; Daudi, DAUDI cell line, Burkitt's Lymphoma, B Cell): 441 nM | IC50 ([1]; EB1, EB1 cell line, Burkitt's Lymphoma, B Cell): 110 nM | IC50 ([1]; EB2, EB2 cell line, Burkitt's Lymphoma, B Cell): 631 nM | IC50 ([1]; EB-3, EB3 cell line, Burkitt's Lymphoma, B Cell): 2970 nM | IC50 ([1]; EM-2, EM2 cell line, CML, Unspecified): 1220 nM | IC50 ([1]; GA-10, GA-10 cell line, Burkitt's Lymphoma, B Cell): 237 nM | IC50 ([1]; GDM-1, GDM-1 cell line, AML, Monoblast): 2820 nM | IC50 ([1]; HD-MY-Z cell line, Hodgkin's Lymphoma, Unspecified): 9120 nM | IC50 ([1]; HEL 92.1.7, HEL92.1.7 cell line, AML, Erythroleukemia): 14100 nM | IC50 ([1]; HH, HH cell line, Non-Hodgkin's Lymphoma (CTCL), T Cell): 301 nM | IC50 ([1]; HL-60, HL-60 cell line, AML, Myeloblast): 2580 nM | IC50 ([1]; HSB2, HSB2 cell line, ALL, T Cell): 5350 nM | IC50 ([1]; HT, HT cell line, Burkitt's Lymphoma, B Cell): 206 nM | IC50 ([1]; HuT78, HuT78 cell line, Non-Hodgkin's Lymphoma (CTCL), T Cell): 544 nM | IC50 ([1]; J.gamma1, J.Gamma-1 cell line, ALL, T Cell): 57 nM | IC50 ([1]; JIYOYE, JIYOYE cell line, Burkitt's Lymphoma, B Cell): 1850 nM | IC50 ([1]; JM1, JM1 cell line, Burkitt's Lymphoma, pre-B Cell): 759 nM | IC50 ([1]; Jurkat, Jurkat cell line, ALL, T Cell): 28 nM | IC50 ([1]; K562, K562 cell line, CML, Lymphoblast): 4450 nM | IC50 ([1]; KG-1, KG-1 cell line, AML, B Cell): 61 nM | IC50 ([1]; KU812, Ku812 cell line, CML, Basophilic Leukocyte): 187 nM | IC50 ([1]; Kasumi 1, Kasumi-1 cell line, AML, Myeloblast): 131 nM | IC50 ([1]; Kasumi-2 cell line, AML, Myeloblast): 996 nM | IC50 ([1]; L-428, L428 cell line, Hodgkin's Lymphoma, Unspecified): 1.35 nM | IC50 ([1]; MC116, MC116 cell line, Burkitt's Lymphoma, B Cell): 1080 nM | IC50 ([1]; MEG-01, MEG01 cell line, CML, Megakaryoblastic): 6140 nM | IC50 ([1]; MHH-CALL-3 cell line, ALL, pre-B Cell): 1220 nM | IC50 ([1]; MHH-PREB-1, MHH-PREB-1 cell line, Non-Hodgkin's Lymphoma, B Cell): 1920 nM | IC50 ([1]; ML-2, ML-2 cell line, AML, Myelomonocytic): 981 nM | IC50 ([1]; MOLT-3, MOLT3 cell line, ALL, T Cell): 62 nM | IC50 ([1]; MOLT-4, Molt-4 cell line, ALL, T Cell): 14 nM | IC50 ([1]; MOLT-16, MOLT16 cell line, ALL, T Cell): 481 nM | IC50 ([1]; MV4-11, MV-4-11 cell line, AML, Myelomonocytic): 1270 nM | IC50 ([1]; NALM-6, Nalm-6 cell line, ALL, pre-B Cell): 352 nM | IC50 ([1]; NC-37, NC-37 cell line, Burkitt's Lymphoma, B Cell): 1780 nM | IC50 ([1]; NOMO-1, Nomo-1 cell line, AML, B Cell): 104 nM | IC50 ([1]; NU-DHL-1, NU-DHL-1 cell line, Burkitt's Lymphoma, B Cell): 64 nM | IC50 ([1]; OCI-AML2, OCI-AML-2 cell line, AML, B Cell): 10300 nM | IC50 ([1]; OCI-AML-3, OCI-AML-3 cell line, AML, B Cell): 113 nM | IC50 ([1]; OCI-M1, OCI-M1 cell line, AML, B Cell): 1130 nM | IC50 ([1]; P3HR-1, P3HR-1 cell line, Burkitt's Lymphoma, B Cell): 69 nM | IC50 ([1]; PLB-985, PLB985 cell line, AML, B Cell): 2990 nM | IC50 ([1]; Pfeiffer, Pfeiffer cell line, Non-Hodgkin's Lymphoma, B Cell): 13 nM | IC50 ([1]; RCH-ACV cell line, ALL, pre-B Cell): 668 nM | IC50 ([1]; RCK8, RC-K8 cell line, Non-Hodgkin's Lymphoma (Histiocytic), B Cell): 5390 nM | IC50 ([1]; REH, Reh cell line, ALL, pre-B Cell): 292 nM | IC50 ([1]; RL, RL cell line, Non-Hodgkin's Lymphoma, B Cell): 225 nM | IC50 ([1]; RPMI-6666, RPMI 6666 cell line, Hodgkin's Lymphoma, Lymphoblast): 135 nM | IC50 ([1]; RS4-11, RS4;11 cell line, ALL, B Cell): 539 nM | IC50 ([1]; Raji, Raji cell line, Burkitt's Lymphoma, B Cell): 6590 nM | IC50 ([1]; Rec1, REC-1 cell line, Non-Hodgkin's Lymphoma, B Cell): 3690 nM | IC50 ([1]; SC-1, SC1 cell line, Burkitt's Lymphoma, B Cell): 2130 nM | IC50 ([1]; SEM cell line, ALL, pre-B Cell): 347 nM | IC50 ([1]; SKO-007, SKO-007 cell line, Multiple Myeloma, B Cell): 6770 nM | IC50 ([1]; SR, SR cell line, Non-Hodgkin's Lymphoma, Lymphoblast): 2510 nM | IC50 ([1]; ST486, ST486 cell line, Burkitt's Lymphoma, B Cell): 2450 nM | IC50 ([1]; SU-DHL10, SU-DHL-10 cell line, Non-Hodgkin's Lymphoma, B Cell): 175 nM | IC50 ([1]; SU-DHL-4, SU-DHL-4 cell line, Non-Hodgkin's Lymphoma, B Cell): 114 nM | IC50 ([1]; SU-DHL-5, SU-DHL-5 cell line, Non-Hodgkin's Lymphoma, B Cell): 153 nM | IC50 ([1]; SU-DHL-6, SU-DHL-6 cell line, Non-Hodgkin's Lymphoma, B Cell): 63 nM | IC50 ([1]; SU-DHL-16, SU-DHL-16 cell line, Non-Hodgkin's Lymphoma, B Cell): 62 nM | IC50 ([1]; SUP-B15, SUP B15 cell line, ALL, B Cell): 1940 nM | IC50 ([1]; T-cell, 8E5 cell line, ALL, T Cell): 43 nM | IC50 ([1]; T-cell, CEM/C3 cell line, ALL, T Cell): 35 nM | IC50 ([1]; T-cell, I2.1 cell line, ALL, T Cell): 48 nM | IC50 ([1]; T-cell, J.Cam.1.6 cell line, ALL, T Cell): 110 nM | IC50 ([1]; T-cell, J.RT-T3.5 cell line, ALL, T Cell): 54 nM | IC50 ([1]; T-cell, JR45.01 cell line, ALL, T Cell): 33 nM | IC50 ([1]; T-cell, LOUCY cell line, ALL, T Cell): 63 nM | IC50 ([1]; T-cell, MJ cell line, Non-Hodgkin's Lymphoma (CTCL), T Cell): 4730 nM | IC50 ([1]; T-cell, SUPTI(VB) cell line, ALL, T Cell): 200 nM | IC50 ([1]; TO 175.T, TO 175.T cell line, Hodgkin's Lymphoma, Unspecified): 8490 nM | IC50 ([1]; Toledo, Toledo cell line, Non-Hodgkin's Lymphoma, B Cell): 1150 nM | IC50 ([1]; U-937, U937 cell line, Non-Hodgkin's Lymphoma (Histiocytic), Monocyte): 26 nM
